{
  "source": "paper PMC8264259",
  "about": "“A Novel Ruthenium(II) Complex With Lapachol Induces G2/M Phase Arrest Through Aurora-B Kinase Down-Regulation and ROS-Mediated Apoptosis in Human Prostate Adenocarcinoma Cells” (Frontiers in Oncology, 2021)",
  "assay_type_in_all_cases": "cell-based, human",
  "key": {"DU-145 cells [1]": {"system": "DU-145 cells", "assay": "Annexin-V/PI staining assay (flow cytometry)", "conditions": "for population of apoptotic cells: 24 h, control group 5.9%", "procedure": "The measurement of cell death was performed by the guidelines of ([35]). Detection of apoptotic/necrotic cells was determined by flow cytometry using the Alexa Fluor® 488 Annexin V/PI (Thermo Fischer Scientific), and the analyses were performed according to the manufacturer’s instructions. […] DMSO (0.1% v/v) was used as the vehicle control. Following 24 h of incubation, the cells were collected with Accutase® (Gibco-Invitrogen®), washed with PBS and resuspended in 200 μl of cold annexin-binding buffer. Next, 10 μl of Alexa Fluor® was added to Annexin V (50 μl/ml) staining buffer, and the mixture was incubated in the dark at 4°C for 15 min. Previously, the analyses, 100 μl of PI (2 μg/ml) was added, and then, the fluorescence was measured by flow cytometry in a FACSCanto flow cytometer (BD Biosciences, USA) using the Diva software. Ten thousand events were evaluated per experiment, and cellular debris was omitted from the analysis."}, "DU-145 cells [2]": {"system": "DU-145 cells", "assay": "Cell cycle analysis (PI, flow cytometry)", "conditions": "DU-145, 0.25-1.5 μM, 24 h", "procedure": "DNA staining was performed using BD Cycletest™ Plus DNA Kit (BD Biosciences, USA) according to the manufacturer’s instructions. Briefly, DU-145 cells were seeded (5.0 × 10^4 cells/well) into 24-well culture plates and maintained to attach at 37°C in 5% CO2. After 24 h, the culture medium was replaced by complete culture medium containing 0.25, 0.5, 1.0, and 1.5 μM of complex (2). DMSO (0.1% v/v) was used as the vehicle control. Then, after 24 h treatment, the cells were harvested and fixed with 70% ethanol at 4°C for 1 h. Cells were incubated with 0.1 mg/ml RNase and 0.5 mg/ml propidium iodide (PI) for 10 min. Samples were then filtered using 50-µm nylon mesh and the FACSCanto flow cytometer (Becton Dickinson, Franklin Lakes, NJ, USA) was used to analyze the DNA histogram. Data from 10,000 cells were acquired and analyzed using the ModFit software (BD Biosciences, USA). The results were expressed as percentage of cells in each cell cycle phase (G1, S, and G2/M)."}, "[3]": {"system": "cleaved caspase-3, -9, and PARP", "assay": "Western blot, apoptotic proteins", "conditions": "DU-145, 24 h", "procedure": "Briefly, DU-145 cells were seeded (1.0 × 10^6 cells/well) into six-well plates and maintained to attach at 37°C in 5% CO2. After 24 h, cells were treated with 0.25, 0.50, 1.0, and 1.5 μM of complex (2). DMSO (0.1% v/v) was used as the vehicle control. After 24 h of incubation, cells were collected and suspended in Western blotting lysis buffer (20 mM Tris-HCl pH 7.4, 150 mM NaCl, 1 mM EDTA, and phosphatase and protease inhibitors). Cell lysates were centrifuged at 11,000g for 15 min at 4 °C, and supernatant was collected. Protein concentrations were quantified using the BCA Protein Assay Kit® (Thermo Fischer Scientific), according to the manufacturer’s instructions. For immunoblotting, equal amounts (30 μg) of total protein were electrophoresed in a NuPAGE® 4-12% Bis-Tris gel and transferred to an Invitrolon™ polyvinylidene difluoride (PVDF) membrane (Novex®, Thermo Fischer Scientific) at 100 V for 1 h. PVDF-membrane was washed two times (5 min each) with Tris-buffered saline plus Tween 20 (TBST, Sigma-Aldrich) and blocked in 5% non-fat milk in phosphate buffered saline with Tween®20 (PBST, Sigma-Aldrich) for 1 h at room temperature. […]"}, "DU-145 cells [4]": {"system": "DU-145 cells", "assay": "Comet assay, DU-145", "conditions": "DU-145, 0.5 μM, 24 h", "procedure": "(§1) The comet assay was performed to evaluate DNA damage following the method described by ([37]). Briefly, DU-145 and PNT-2 cells were seeded (1.0 × 10^5 cells/well) in 24-well plates and maintained to attach at 37°C in 5% CO2 for 24 h. After, cells were treated with different concentrations of complex (2) for 24 h. DMSO (0.1% v/v) was used as the vehicle control and methyl methanesulfonate (150 μM, Sigma-Aldrich) as DNA damage inducer. Following 24 h of incubation, the cells were collected, and cell viability assay was performed using trypan blue dye. […] Then, cells were mixed with UltraPure™ Low-Melting-Point Agarose (0.5%, Invitrogen®), and added on pre-coated slides with UltraPure™ Agarose (1.5%, Invitrogen®). After agarose solidification, the slides were immersed in a lysis solution (2.5 M NaCl, 100 mM EDTA, 10 mM Tris, 10% DMSO, 1% Triton X-100, pH 10.4) for 18 h at 4°C. […] The nucleoids were identified in a fluorescence microscope (AxioStar Plus, Carl Zeiss Axio Cam MRc-AxioVision 3.1) using a 516 to 560 nm filter, 590 nm filter barrier, in 20× objective with an integrated digital camera. For each treatment, 100 random nucleoids were analyzed, and the tail fluorescence was measured through the Comet Assay IV™ imaging system (Perceptive Instruments^©, Bury St Edmunds, England)."}, "PNT-2 cells": {"system": "PNT-2 cells", "assay": "Comet assay, PNT-2", "procedure": "as §1"}},
  "data": [
    {"smiles": "CC(C)=CCC1=C([O-])C(=O)c2ccccc2C1=O.F[P-](F)(F)(F)(F)F.[Ru+2].c1ccc(P(CP(c2ccccc2)c2ccccc2)c2ccccc2)cc1.c1cnc2c(c1)ccc1cccnc12", "note": "[complex (2), [Ru(Lap)(dppm)(phen)]PF6]", "values": [
      {"measurement": "population of apoptotic cells", "setting": "DU-145 cells [1]; DU-145, 0.25 μM", "result": 11.8, "unit": "%"},
      {"measurement": "population of apoptotic cells", "setting": "DU-145 cells [1]; DU-145, 0.5 μM", "result": 22.7, "unit": "%"},
      {"measurement": "population of apoptotic cells", "setting": "DU-145 cells [1]; DU-145, 1.0 μM", "result": 41.4, "unit": "%"},
      {"measurement": "population of apoptotic cells", "setting": "DU-145 cells [1]; DU-145, 1.5 μM", "result": 70.2, "unit": "%"},
      {"measurement": "fold lower concentration required for the same effect of cisplatin", "setting": "DU-145 cells [1]; apoptotic DU-145 cells, vs cisplatin 25 μM", "result": 100, "unit": "fold"},
      {"measurement": "cell cycle distribution", "setting": "DU-145 cells [2]", "result": "increased cell number at the G2/M phase"},
      {"measurement": "activation of downstream apoptotic proteins", "setting": "[3]", "result": "increase in the activation of cleaved caspase-3, -9, and PARP"},
      {"measurement": "DNA damage (comet tail intensity)", "setting": "DU-145 cells [4]", "result": "significant DNA damage increase"},
      {"measurement": "DNA damage (comet tail intensity)", "setting": "PNT-2 cells; PNT-2, maximum tested concentration 6.0 μM (~IC50), 24 h", "result": "increase in DNA damage"},
      {"measurement": "DNA damage (comet tail intensity)", "setting": "PNT-2 cells; PNT-2 prostate normal cells, same concentrations as DU-145, 24 h", "result": "no DNA damage"}
    ]}
  ]
}
